Data reported in publication PMC5064022, “KCNE1 induces fenestration in the Kv7.1/KCNE1 channel complex that allows for highly specific pharmacological targeting” (Nature Communications, 2016).

Assays:
Type in all cases: cell-based
[1] = biological target: A344C/KCNE1 (Homo sapiens, UniProt P15382+P51787, A344C); assay: TEVC, mutant channel A344C/KCNE1 in oocytes; settings: Kv7.1 A344C mutant with KCNE1
Excerpt: (§1) Ala scanning was previously used to identify specific residues that form the putative binding sites for chromanol and benzodiazepine derivatives that are considered to be classical pore blockers of Kv7.1 channels. Here we applied Ala scanning to multiple segments of the Kv7.1 α-subunit to identify potential AC-1 interaction sites in the extended pore region of Kv7.1/KCNE1 channels (Fig. 3a). In cases where mutation to Ala precluded channel function, alternative residues were introduced. […] Instead, most of these crucial residues cluster around a ‘window' formed uniquely in the preopen–closed state model of the Kv7.1/KCNE1 channel[33] (Fig. 3c, magenta residues). […]
(§2) Template cDNAs (wildtype or mutant human Kv7.1 in pSGEM, wildtype human KCNE1 in pSP64) were linearized with a suitable restriction enzyme (Nhe I/pSGEM, Eco RI/pSP64). cRNA was synthesized from 1 μg linearized cDNA by in vitro transcription (mMessage mMachine T7 or SP6 kit, Ambion, Life Technologies Darmstadt, Germany). cRNA concentrations were determined by photometry (Nanodrop, Peqlab, Erlangen, Germany) and cRNA quality was checked by agarose gel electrophoresis. […]
(§3) TEVC measurements were performed using a TurboTec-10CD amplifier (npi Electronic, Tamm, Germany) and an ITC-16 AD/DA-interface (Instrutech Corporation, Port Washington, New York, USA). […] Tail currents were recorded at −120 mV. […]

[2] = tested on: T1, Kv7.2; assay: TEVC, Kv7.2 channels; settings: 1 μM
T1 construct: expressed in transfected cells

[3] = biological target: I274A/KCNE1 (Homo sapiens, UniProt P15382+P51787, I274A); assay: TEVC, mutant channel I274A/KCNE1 in oocytes; settings: Kv7.1 I274A mutant with KCNE1
Excerpt: as §1, §2, §3

[4] = tested on: T2, Kv1.5; assay: TEVC, Kv1.5 channels; settings: 1 μM
T2 construct: expressed in transfected cells

[5] = biological target: T312S/KCNE1 (Homo sapiens, UniProt P15382+P51787, T312S); assay: TEVC, mutant channel T312S/KCNE1 in oocytes; settings: Kv7.1 T312S mutant with KCNE1
Excerpt: as §1, §2, §3

[6] = biological target: Kv7.1/KCNE1 (Homo sapiens, UniProt P15382+P51787); assay: Two electrode voltage clamp of Kv7.1/KCNE1 currents in Xenopus oocytes
Experimental: Template cDNAs (wildtype or mutant human Kv7.1 in pSGEM, wildtype human KCNE1 in pSP64) were linearized with a suitable restriction enzyme (Nhe I/pSGEM, Eco RI/pSP64). cRNA was synthesized from 1 μg linearized cDNA by in vitro transcription (mMessage mMachine T7 or SP6 kit, Ambion, Life Technologies Darmstadt, Germany). cRNA concentrations were determined by photometry (Nanodrop, Peqlab, Erlangen, Germany) and cRNA quality was checked by agarose gel electrophoresis.
Oocytes were commercially obtained from EcoCyte Bioscience (Castrop-Rauxel, Germany). Injection of stage 4 or 5 oocytes was performed using a nanoliter injector 2000 (WPI, Berlin, Germany). For standard pharmacological measurements, each oocyte was injected with 5 ng Kv7.1 cRNA alone or with 1 ng KCNE1 cRNA. To investigate the influence of KCNE1 on AC-1 sensitivity of Kv7.1 tetramers, 5 ng Kv7.1 cRNA was injected with different amounts of KCNE1 cRNA (0 ng, 0.005 ng, 0.05 ng, 0.5 ng and 5 ng). Injected oocytes were maintained in an incubator at 17 °C for 4–5 days in standard Barth solution (EcoCyte Bioscience, Castrop-Rauxel, Germany) supplemented with 90 μg ml^−1 theophylline, 63 μg ml^−1 penicillin, 40 μg ml^−1 streptomycin, and 100 μg ml^−1 gentamycin until used for two electrode voltage clamp (TEVC) measurements.
TEVC measurements were performed using a TurboTec-10CD amplifier (npi Electronic, Tamm, Germany) and an ITC-16 AD/DA-interface (Instrutech Corporation, Port Washington, New York, USA). Pulse and PulseFit software (HEKA, Lambrecht/Pfalz, Germany) was used for data acquisition and analysis. During TEVC recordings, oocytes were constantly perfused with control solution (ND96, containing in mM: 96 NaCl, 4 KCl, 1.8 CaCl2, 1 MgCl2, 5 mM HEPES, pH 7.6 supplemented 0.1–0.3% DMSO). AC solutions were freshly prepared in ND96 from a 10 mM DMSO stock solution. Glass capillaries were pulled to a fine point to produce current and voltage electrodes that were back-filled with 3 M KCl. When filled with this solution, electrode resistances ranged from 0.5–1.5 MΩ. Different voltage pulse protocols were used as follows: (1) To study the inhibitory effect of different AC derivatives, Kv7.1/KCNE1 currents were elicited by repetitive 7 s pulses to +40 mV applied every 30 s from a holding potential of −80 mV. (2) To analyse the voltage dependence of channel activation, currents were elicited by 10 s pulses to test voltages between −100 and +60 mV, applied in 20 mV increments from a holding potential of −80 mV. Tail currents were recorded at −120 mV. For control we always expressed KCNE1 alone along mutant channels and mutant currents were only taken into account when it reached at least 2.5- to 3-fold the size of the background Xenopus-Kv7.1/hKCNE1 currents.
Electrophysiological data were analysed using PulseFit software (HEKA, Lambrecht/Pfalz, Germany) and GraphPad Prism (GraphPad Software, Inc., La Jolla, California, USA). Channel inhibition was determined as reduction of whole cell current amplitude at the end of a 7 s test pulse to +40 mV. The concentration of compound that caused half-maximal inhibition (IC50) were determined using the Hill equation: Idrug/Imax=1/(1+[C/IC50]^H), where Idrug is the current amplitude in the presence of the drug, Imax is the current amplitude before drug application, C is the drug concentration and H is the Hill coefficient.

[7] = biological target: I337V/KCNE1 (Homo sapiens, UniProt P15382+P51787, I337V); assay: TEVC, mutant channel I337V/KCNE1 in oocytes; settings: Kv7.1 I337V mutant with KCNE1
Excerpt: as §1, §2, §3

[8] = tested on: Kv7.1/KCNE2–5; assay: TEVC, Kv7.1 co-expressed with other KCNE isoforms; settings: 1 μM

IC50 [1]: 1000 ± 200 nM | IC50 [3]: 327 ± 83 nM | IC50 [5]: > 50 µM | inhibition at 10 µM ([6]; 10 µM, percent change in current amplitude at end of pulse to +40 mV): 89.2 ± 1.2% | Hill-coeff. ([6]; concentration-response at +40 mV, oocytes): 1.2 ± 0.1 | maximum reduction of Kv7.1/KCNE1 channel currents ([6]; even at concentrations ∼100-fold greater than the IC50): about 90% | higher voltages required to elicit measurable channel opening (depolarizing shift of activation) ([6]; in the presence of AC-1 (300 nM)): 20–40 mV | slope m of linear fit of τinhibition against AC-1 concentration ([6]; onset of inhibition, single exponential, y=m × log[AC−1]+b): −1.02±0.19 | IC50 ([6]; wt, currents at end of 7 s pulse to +40 mV, holding −80 mV, oocytes, read-out: IC50 for inhibition of Kv7.1/KCNE1 channel currents): 78.4 nM | IC50 [7]: 6 ± 1.6 µM
Structure (SMILES): CC(C)(Oc1ccc(Cl)cc1)C(=O)NC1C2CC3CC1CC(NS(C)(=O)=O)(C3)C2 (stereo not shown) [AC-1, 2-(4-chlorophenoxy)-2-methyl-N-[5-[(methylsulfonyl)amino]tricyclo[3.3.1.13,7]dec-2-yl]-propanamide]
effect on Kv7.2 [2]: does not affect | effect on Kv1.5 [4]: does not affect | effect on channel activation kinetics ([6]; 300 nM): strong deceleration of channel activation | effect on rate of current deactivation ([6]; 300 nM, activated by 5 s pulse to +40 mV): does not alter the rate of current deactivation | effect on rate of current deactivation ([6]; 300 nM, activated by 5 s pulse to −20 mV): decreases the rate of current deactivation | sensitivity of Kv7.1/KCNE2-5 currents [8]: insensitive
